The subject of this test is Mtb H37Rv mc^2 6230. In words: MIC of compounds alone against Mtb H37Rv mc^2 6230. The test is classed as cell-based, Mycobacterium tuberculosis. To be noted: compound alone, absence of KAN.

“And” between values parts separate entries of the source, which are not always exact repeats. Equal values may be shown once. Bounds are passed on as bounds.

For the compound `NC[C@H]1O[C@H](O[C@H]2[C@H](O)[C@@H](O[C@H]3O[C@H](CO)[C@@H](O)[C@H](N)[C@H]3O)[C@H](N)C[C@@H]2N)[C@H](O)[C@@H](O)[C@@H]1O` [KAN, kanamycin], the “H37Rv mc^2 6230 MIC” value is <1 μg/mL and <1.72 μM.

These data come from paper PMC7385556 (ACS chemical biology, 2020).
